Measured values as given in patent publication US20230381210A1, “COMPOSITION FOR PREVENTION, AMELIORATION, OR TREATMENT OF HYPERSENSITIVITY IMMUNE DISEASE CONTAINING GALACTOSE” (Quorum Bio Co., Ltd., priority 2020, published 2023).

Tests used:
Format in all cases: in vivo, BALB/c mice
[1] = test system: DNCB-induced atopic dermatitis mouse model; assay: Visual confirmation of skin lesions in DNCB-induced atopic dermatitis mouse model; conditions: oral 100 or 200 mg/kg daily (G5, G6) vs negative control (G3, PBS); FIG. 2, n=2 per group
Method: (§1) An animal experiment in the following example was performed in accordance with the regulations set forth by Chonnam National University IACUC in an environment maintained at 50±5% humidity and 24˜26° C. temperature. 7-week-old male BALB/c mice (Damool Science Co., Ltd.) bred as a test animal were used, and after being acclimatized in a laboratory environment for one week while supplying enough feed and water, they were used in the experiment. Non-allergenic, dust-free, non-toxic, absorbent and pathogen-free bedding was used, and the cage was changed once a week to maintain a clean environment, and water was freely supplied with a water bottle. Galactose was pre-administered for 2 weeks from the period when the prepared mice were 8-week-old. Pre-administration was performed by oral administration once a day for 2 weeks, and the dose of galactose was 100 mg/kg or 200 mg/kg, respectively. As a control group, mice administered (orally) with PBS for the same period were prepared. After 2 weeks of pre-administration, the hairs on the mouse head and back of the mice were removed using a clipper and depilatory cream. […] On the day 16 after the first DNCB application (just before necropsy), ear thickness and clinical symptoms of the mice were measured. […]

[2] = test system: DNCB-induced atopic dermatitis mouse model; assay: Ear thickness measurement in DNCB-induced atopic dermatitis mouse model; conditions: oral 100 or 200 mg/kg daily (G5, G6); FIG. 3
Method: as §1, with “respectively.” for “respectively. As a control group, mice administered (orally) with PBS for the same period were prepared. After 2 weeks of pre-administration, the hairs on the mouse head and back of the mice were removed using a clipper and depilatory cream.”, “measured. The mice prepared in Reference example 1 were evaluated for clinical symptoms (rubefaction, keratin formation (dryness degree), crust formation), and ear thickness was measured and then recorded three times a week (Monday, Wednesday, Friday). Ear thickness was measured three times a week using Caliper (R12-1A, Ozaki, Tokyo, Japan).” for “measured.”

[3] = test system: DNCB-induced atopic dermatitis mouse model; assay: Clinical scoring (rubefaction, keratin formation, crust formation) in DNCB-induced atopic dermatitis mouse model; conditions: oral 100 or 200 mg/kg daily (G5, G6) vs negative control (G3); FIG. 4
Method: An animal experiment in the following example was performed in accordance with the regulations set forth by Chonnam National University IACUC in an environment maintained at 50±5% humidity and 24˜26° C. temperature. 7-week-old male BALB/c mice (Damool Science Co., Ltd.) bred as a test animal were used, and after being acclimatized in a laboratory environment for one week while supplying enough feed and water, they were used in the experiment. Non-allergenic, dust-free, non-toxic, absorbent and pathogen-free bedding was used, and the cage was changed once a week to maintain a clean environment, and water was freely supplied with a water bottle. […] On the day 16 after the first DNCB application (just before necropsy), ear thickness and clinical symptoms of the mice were measured. The mice prepared in Reference example 1 were evaluated for clinical symptoms (rubefaction, keratin formation (dryness degree), crust formation), and ear thickness was measured and then recorded three times a week (Monday, Wednesday, Friday). Ear thickness was measured three times a week using Caliper (R12-1A, Ozaki, Tokyo, Japan). […] For the mice prepared in Reference example 1, the clinical symptoms of the three items (rubefaction, keratin formation (dryness), crust formation) were scored on the basis of the following: 0 point; none, 1 point; mild, 2 points; moderate, 3 points; severe.

[4] = test system: DNCB-induced atopic dermatitis mouse model; assay: Spleen and lymph node weight in DNCB-induced atopic dermatitis mouse model; conditions: oral 100 or 200 mg/kg daily (G5, G6) vs negative control (G3)
Method: An animal experiment in the following example was performed in accordance with the regulations set forth by Chonnam National University IACUC in an environment maintained at 50±5% humidity and 24˜26° C. temperature. 7-week-old male BALB/c mice (Damool Science Co., Ltd.) bred as a test animal were used, and after being acclimatized in a laboratory environment for one week while supplying enough feed and water, they were used in the experiment. Non-allergenic, dust-free, non-toxic, absorbent and pathogen-free bedding was used, and the cage was changed once a week to maintain a clean environment, and water was freely supplied with a water bottle. Galactose was pre-administered for 2 weeks from the period when the prepared mice were 8-week-old. Pre-administration was performed by oral administration once a day for 2 weeks, and the dose of galactose was 100 mg/kg or 200 mg/kg, respectively. As a control group, mice administered (orally) with PBS for the same period were prepared. […] On the day 16 after the first DNCB application (just before necropsy), ear thickness and clinical symptoms of the mice were measured. […] In the present example, by measuring the weight of the spleen and armpit lymph nodes right before autopsy of the mice prepared in Reference example 1, a protective effect of atopic dermatitis was indirectly evaluated.

[5] = test system: DNCB-induced atopic dermatitis mouse model; assay: Total IgE in serum by ELISA in DNCB-induced atopic dermatitis mouse model; conditions: oral 200 mg/kg daily (G6) vs negative control (G3); day 16; FIG. 7
Method: An animal experiment in the following example was performed in accordance with the regulations set forth by Chonnam National University IACUC in an environment maintained at 50±5% humidity and 24˜26° C. temperature. 7-week-old male BALB/c mice (Damool Science Co., Ltd.) bred as a test animal were used, and after being acclimatized in a laboratory environment for one week while supplying enough feed and water, they were used in the experiment. Non-allergenic, dust-free, non-toxic, absorbent and pathogen-free bedding was used, and the cage was changed once a week to maintain a clean environment, and water was freely supplied with a water bottle. […] On the day 16 after the first DNCB application (just before necropsy), ear thickness and clinical symptoms of the mice were measured. At autopsy (16 days after first DNCB application), whole blood was collected, and then serum was separated and the IgE level in serum was measured by ELISA. As total IgE in serum was increased, when DNCB was treated to skin in the DNCB-induced atopic dermatitis mouse model, in the present example, by collecting blood right before autopsy of the mice prepared in Reference example 1 and then isolating serum and evaluating the total amount of IgE (ug/ml) in serum through ELISA method, a protective effect of atopic dermatitis was indirectly evaluated.

## O=C[C@H](O)[C@@H](O)[C@@H](O)[C@H](O)CO [galactose]
[1]
  degree of crust formation: reduced
  degree of skin rubefaction: suppressed
[2]
  ear thickness: significantly reduced
[3]
  score of clinical symptoms (sum of rubefaction, keratin formation, crust formation scores): significantly reduced
[4]; FIG. 5
  weight of spleen: generally reduced
[4]; FIG. 6
  weight of lymph nodes (armpit): generally reduced
[5]
  total amount of IgE in serum: significantly reduced
